Laboratory results as given in paper PMC11621109, “Increasing sustainability and reproducibility of in vitro toxicology applications: serum-free cultivation of HepG2 cells” (Frontiers in Toxicology, 2024).
Each block holds one compound with its values, some of them ahead of it. *1 amine or outer side, *2 acyl side, *3 side chain or, on linkers, in order; H or OH if unused. Where a SMILES comes first, the peptide text is derived from it. Bridges are numbered along the chain shown (N, C = ends). Roman numbers before positions name the chains, in order. [ ]: non-standard residue; d: D form. Actinocin(9to1) = Cc1c2oc3c(C)ccc(C(=O)[*:1])c3nc-2c(C(=O)[*:2])c(N)c1=O; NMeV = CN[C@H](C(=O)O)C(C)C; Sar = CNCC(=O)O

How the values were obtained:
Type in all cases: cell-based, human
[1] = tested on: p-serin 2/5 of RNA-Polymerase II; assay: Cellular fingerprint assay (Luminex): RNA Pol II; settings: 24 h
Method: (§1) To measure intracellular drug response markers, HepG2 cells cultivated in standard medium containing FBS, Advanced DMEM/F12 or TCM® Serum Replacement were seeded in 384-well plates and incubated for 24 h. After incubation, cells were treated with selected MIP-DILI compounds or negative controls in a three-fold dilution series performed in triplicates using the Tecan 300e Dispenser ([Dragovic et al., 2016]). Additionally, cells were treated with assay specific control substances (see Supplementary Table S2). Treatment was performed for 24 h. After treatment, media was carefully aspirated und cells were lysed by adding 40 µL lysis buffer (Supplementary Table S3) to each well. The plates were incubated for 30 min at 4°C and either stored at −80°C or used immediately.
(§2) Intracellular drug response markers were assessed using the Luminex technology. Color-coded beads from NMI specific for one analyte each were used to qualify and quantify p-serin 10 of Histon H3 (cell division marker), LC3B (autophagy marker), PARP (cell death/apoptosis marker), HSP70 (stress response marker), p-serin 2/5 of RNA-Polymerase II (protein transcription marker), p-serin 422 of EIF4B (protein synthesis marker) and HIF1-alpha (oxidative stress marker).
(§3) For hybridization, 25 μL cell lysate of each sample was transferred to a fresh 384-well plate. 25 μL prepared bead mix and 25 µL assay buffer were added and the plate was sealed. Plates were incubated for 16–20 h at 4°C and 600 rpm. The TS Pro thermal plate shaker from CellMedia was used for all incubation steps.
(§4) After incubation the plates were washed and successively incubated with 15 µL detection antibody (1 h, RT, 650 rpm) and 15 µL streptavidin, R-phycoerythrin conjugate (SAPE; 45 min, RT, 650 rpm). After each step, the plates were washed three times with wash buffer. Before measurement, 90 µL assay buffer was added to each well and the plates were incubated for 10 min at RT and 700 rpm. Measurement was performed using the Luminex™ FlexMAP 3D from ThermoFisher.

HepG2 cells [2] = assay: Cellular fingerprint assay: overall marker response / cell death; settings: 24 h
Method: as §1, §2
(§5) For hybridization, 25 μL cell lysate of each sample was transferred to a fresh 384-well plate. […]

[3] = tested on: PARP (cell death/apoptosis marker); assay: Cellular fingerprint assay (Luminex): PARP; settings: 24 h
Method: as §1, §2, §3, §4

[4] = tested on: HIF1-alpha (oxidative stress marker); assay: Cellular fingerprint assay (Luminex): HIF-1-alpha; settings: 24 h
Method: as §1, §2, §3, §4

[5] = tested on: GSH content of HepG2 cells; assay: GSH-Glo glutathione assay (oxidative stress); settings: 24 h
Method: To assess oxidative stress in cells in response to compound treatment, the GSH-Glo™ Glutathione Assay from Promega was used according to manufacturer’s instructions (V6912). HepG2 cells cultivated in standard medium containing FBS, Advanced DMEM/F12 or TCM® Serum Replacement were seeded in 384-well plates, incubated for 24 h, and subsequently treated with the MIP-DILI reference compounds, negative controls, or internal controls in a three-fold dilution series performed in triplicates using the Tecan 300e Dispenser ([Dragovic et al., 2016]). Treatment was performed for 24 h.
Assay reagents and plates were first equilibrated to room temperature. GSH-Glo™ Reagent 1x was obtained by diluting Luciferin-NT substrate and Glutathione S-Transferase 1:100 in GSH-Glo™ Reaction Buffer. Luciferin Detection reagent was dissolved in Reconstitution Buffer with Esterase.
The medium was aspirated, GSH-Glo™ Reagent 1x was added to the cells and plates were shaken for 2 min and subsequently incubated for 30 min at room temperature protected from light. Afterwards, reconstituted Luciferin Detection Reagent was added, and cells were again shaken for 2 min before incubation for 15 min at room temperature in the dark. Luminescence was measured using the Varioskan Plate Reader from Thermo Fisher.

LC3B (autophagy marker) = assay: Cellular fingerprint assay (Luminex): LC3B; settings: 24 h
Method: as §1, §2, §5

[6] = tested on: HSP70 (stress response marker); assay: Cellular fingerprint assay (Luminex): HSP70; settings: 24 h
Method: as §1, §2, §3, §4

p-serin 422 of EIF4B = assay: Cellular fingerprint assay (Luminex): EIF4B; settings: 24 h; all culture conditions (amiodarone: highest concentration)
Method: as §1, §2, §5

HepG2 cells [7] = assay: Mitochondrial toxicity assay (Glucose/Galactose assay); settings: HepG2 cultured in Advanced DMEM/F12; 2 h treatment
Method: To assess mitochondrial toxicity, the Glucose/Galactose Assay was used. HepG2 cells cultivated in standard medium containing FBS, Advanced DMEM/F12 or TCM® Serum Replacement were seeded in 384-well plates and incubated for 48 h. Cells were washed once, and subsequently switched to DMEM (ThermoFisher, 11966025) supplemented with sodium pyruvate, HEPES and either 25 mM D-glucose or 10 mM D-galactose without FBS to avoid residual glucose. Cells were pre-incubated for 4 h before treatment with the MIP-DILI reference compounds, negative controls or internal controls ([Dragovic et al., 2016]). Treatment was performed in a three-fold dilution series in triplicates using the Tecan 300e Dispenser. Cells were treated for 2 h, and the read-out was performed by measuring cell viability using the CellTiter-Glo® reagent as described previously. IC50 values were obtained from dose response curves in GraphPad Prism using a log(inhibitor) vs. response model (variable slope, four parameters, bottom constraint = 0). Mitochondrial toxicity was assessed by calculating the IC50Glc/IC50Gal ratio and the threshold for risk for mitochondrial toxicity was set at >2.

[8] = comparable results for all culture conditions
[9] = highest concentration, across all media
[10] = all culture conditions (amiodarone: highest concentration)

SMILES: CN(C)C(=N)N=C(N)N [Metformin]
RNA Pol II levels ([1]; highest concentration tested, Advanced DMEM/F12): slight decrease
elevation of intracellular drug response markers (HepG2 cells [2]; all seven markers): did not result in elevated markers

SMILES: CC(=O)N(O)CCCCCNC(=O)CCC(=O)N(O)CCCCCNC(=O)CCC(=O)N(O)CCCCCN [deferoxamine, Deferoxamin Mesylat]
PARP level ([3]; serum-free media): not observed
PARP level ([3]; standard medium): increased PARP level
HIF-1-alpha levels ([4]; Advanced DMEM/F12, treated vs. untreated cells): no significant increase in HIF-1-alpha levels
HIF-1-alpha levels ([4]; TCM): elevated HIF-1-alpha levels
HIF-1-alpha levels ([4]; standard medium): elevated HIF-1-alpha levels

SMILES: O=C1CC2(CCCC2)CC(=O)N1CCCCN1CCN(c2ncccn2)CC1 [Buspirone]
changes in GSH [5, 8]: viability dependent changes in GSH

SMILES: CO/C1=C\C(C)=C\[C@@H](C)[C@@H](O)[C@@H](C)C/C(C)=C/C=C/[C@H](OC)[C@@H]([C@@H](C)[C@@H](O)[C@H](C)[C@@]2(O)C[C@@H](O)[C@H](C)[C@@H](C(C)C)O2)OC1=O [bafilomycin, Bafilomycin A1]
LC3B levels (LC3B (autophagy marker); similar response in all culture conditions): strong increase in LC3B levels

SMILES: O=C(O)Cc1ccccc1Nc1c(Cl)cccc1Cl [Diclofenac]
changes in GSH [5, 8]: viability dependent changes in GSH

SMILES: CCc1nn(CCCN2CCN(c3cccc(Cl)c3)CC2)c(=O)n1CCOc1ccccc1 [Nefazodone]
changes in GSH [5, 8]: viability dependent changes in GSH

SMILES: C/C=C(/C)C(=O)O[C@H]1C(C)=C2[C@H]([C@@H]1OC(=O)CCCCCCC)[C@@](C)(OC(C)=O)C[C@H](OC(=O)CCC)[C@@]1(O)[C@H]2OC(=O)[C@@]1(C)O [Thapsigargin]
changes in GSH ([5]; at low concentrations, increase significantly lower in both serum-free media): increase in GSH

SMILES: COC1=C2C[C@@H](C)C[C@H](OC)[C@H](O)[C@@H](C)/C=C(\C)[C@H](OC(N)=O)[C@@H](OC)/C=C\C=C(/C)C(=O)NC(=CC1=O)C2=O [geldanamycin, Geldanamycin]
fold change (response, Figure 7B) ([6]; Advanced DMEM/F12): 20.6
fold change (response, Figure 7B) ([6]; TCM): 8.7
fold change (response, Figure 7B) ([6]; standard medium): 7.4

SMILES: CC(=O)O[C@H]1C(=O)[C@@]2(C)[C@H]([C@H](OC(=O)c3ccccc3)[C@]3(O)C[C@H](OC(=O)[C@H](O)[C@@H](NC(=O)c4ccccc4)c4ccccc4)C(C)=C1C3(C)C)[C@]1(OC(C)=O)CO[C@@H]1C[C@@H]2O [Paclitaxel]
changes in GSH ([5]; at high concentrations, increase significantly lower in both serum-free media): increase in GSH

RNA Pol II levels [1, 10]: decrease
SMILES: CCCCc1oc2ccccc2c1C(=O)c1cc(I)c(OCCN(CC)CC)c(I)c1 [Amiodarone]
PARP levels [3, 9]: elevated PARP levels
HSP70 levels [6, 9]: decrease
EIF4B levels (p-serin 422 of EIF4B): decrease
LC3B levels (LC3B (autophagy marker); second highest concentration, similar in all conditions): elevated LC3B levels

SMILES: Cc1c2oc3c(C)ccc(C(=O)N[C@@H]4C(=O)N[C@H](C(C)C)C(=O)N5CCC[C@H]5C(=O)N(C)CC(=O)N(C)[C@@H](C(C)C)C(=O)O[C@@H]4C)c3nc-2c(C(=O)N[C@@H]2C(=O)N[C@H](C(C)C)C(=O)N3CCC[C@H]3C(=O)N(C)CC(=O)N(C)[C@@H](C(C)C)C(=O)O[C@@H]2C)c(N)c1=O [actinomycin D, Actinomycin D] (I: T[dV]P[Sar][NMeV] / II: T[dV]P[Sar][NMeV]; ester I:1-I:C, II:1-II:C; linker I:N-II:N via Actinocin(9to1))
fold change (response, Figure 7C) ([3]; Advanced DMEM/F12): 11.3
fold change (response, Figure 7C) ([3]; TCM): 6.6
fold change (response, Figure 7C) ([3]; standard medium): 3.1
RNA Pol II levels [1, 10]: significant decrease
EIF4B levels (p-serin 422 of EIF4B): significant decrease

SMILES: CCCCS(=N)(=O)CCC(N)C(=O)O (stereo not shown) [Buthionine sulfoximine (BSO), Buthionine sulfoximine]
changes in GSH ([5]; independently from viability, less profound in serum-free media): strong decrease in GSH

SMILES: C1CCC(C(CC2CCCCN2)C2CCCCC2)CC1 (stereo not shown) [Perhexiline]
PARP level ([3]; Advanced DMEM/F12 only): significant increase in PARP
changes in GSH [5, 8]: viability dependent changes in GSH
mitochondrial toxicity call (IC50Glc/IC50Gal fold change vs two-fold threshold) (HepG2 cells [7]): identified as a potential mitochondrial toxin
concentrations at which cell death occurred (HepG2 cells [2]; multiple markers drastically reduced or below detection limit): ≥ 16.7 µM
